Experimental data as given in patent US20130053400A1, “OLIGOMER-ANTIHISTAMINE CONJUGATES” (priority 2007, published 2013).
Values joined by “and” are separate entries in the source; they are usually repeats but may differ in a detail not shown here. Equal entries are not always repeated. Where two headings read alike, the source gives them in different places.

Assays:
[1] = tested on: spontaneously beating rat hearts; assay: In vitro safety pharmacology, spontaneously beating rat hearts
Text: The objective of this study was to determine the potential effects of escalating concentrations of conjugates on electrophysiological (PQ, QRS, RR, QT, QTc), and mechanical (dLVP/dtmax and dLVP/dtmin) properties in spontaneously beating rat hearts.

[2] = molecular target: Histamine (H1) (Homo sapiens, UniProt P35367); assay: Histamine (H1) Binding Activity (Table I)
Chain of Histamine (H1) (P35367 whole entry): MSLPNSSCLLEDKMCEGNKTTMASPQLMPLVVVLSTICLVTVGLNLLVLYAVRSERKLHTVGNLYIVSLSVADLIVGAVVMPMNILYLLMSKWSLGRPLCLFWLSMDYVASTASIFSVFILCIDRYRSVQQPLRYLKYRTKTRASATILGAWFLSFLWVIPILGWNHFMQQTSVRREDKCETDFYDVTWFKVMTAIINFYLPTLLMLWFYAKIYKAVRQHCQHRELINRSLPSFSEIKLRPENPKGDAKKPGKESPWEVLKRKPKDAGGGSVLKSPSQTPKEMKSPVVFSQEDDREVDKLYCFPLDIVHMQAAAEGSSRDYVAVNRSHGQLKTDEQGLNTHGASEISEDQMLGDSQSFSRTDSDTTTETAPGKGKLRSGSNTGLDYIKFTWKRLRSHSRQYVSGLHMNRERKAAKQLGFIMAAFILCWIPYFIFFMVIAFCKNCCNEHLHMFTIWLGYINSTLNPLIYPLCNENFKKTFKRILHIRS

[3] = tested on: human hepatocytes; assay: Metabolic stability in human hepatocytes; conditions: for metabolic breakdown / hepatic intrinsic clearance compared with diphenhydramine: human, hepatocytes
[4] = tested on: histamine-induced wheal and flare; assay: Wheal and flare further study, intravenous infusion; type: in vivo, rats; conditions: for antihistamine efficacy (wheal size): IV infusion, rats
Experimental: Briefly, rats received a continuous infusion via the jugular vein catheter for 60 minutes. […] Sixty minutes after the start of the infusion period, the rats were given four (4) interdermal (ID) injections of histamine ([…] in saline; dose 50 μL at 10 μg/rat). […] Twenty minutes after the histamine injections a caliper (Fowler Sylvac Ultra-Cal Mark III) was used to measure the wheal and flare (the diameter of the blue area). Two measurements of the diameter of the blue area at the site of histamine injection were made at 90 degrees from one another. […] Blood samples collected via cardiac puncture were used for diphenhydramine quantitation. The blood samples were placed in vacutainer tubes containing K2 EDTA. The rats were exsanguinated and the brain was rinsed in ice cold saline, wrapped in foil and frozen. The brain and the plasma samples were analyzed for drug content.

[5] = in vitro; conditions: human, hepatocytes
[6] = molecular target: human recombinant H1 histamine receptors (Homo sapiens, UniProt P35367); assay: biochemical
Chain of human recombinant H1 histamine receptors (P35367 whole entry): as above
Experimental: (Caliper Life Sciences, Hopkinton, Mass.). […] This study was performed using duplicate samples per data point (n=2).

[7] = Pharmacokinetics and oral bioavailability in rats; type: in vivo; conditions: for half-life: read-out: T ½ (converted); for Vd: read-out: Vss; for bioavailability: read-out: F (oral bioavailability)
Experimental: For oral doses, 5 mg/kg if DPH-equivalent were used. […] Animals were dosed in triplicate by bolus injection to the femoral vein (IV) or oral gavage (PO), and whole blood was collected from the carotid artery from all animals at the appropriate time points for preparation of plasma samples. Quantitation of test article in plasma was performed by LC-MS/MS.

[8] = Blood-brain barrier penetration, brain:plasma ratio after tail vein injection; conditions: for Fold change (vs DPH): brain concentration, adjusted for DPH molar dose twice that of conjugates; for Kp at 1 h / concentration at 1 h: rat, intravenous; for Kp at 1 h: brain and plasma
Experimental: The four compounds were tested following intravenous injection to the tail vein in rats.
After ensuring a single rat remained viable following a test dose, the rats (4 per condition) were dosed by tail vein injection and were sacrificed one hour later. Blood was collected by cardiac puncture, and brain tissue was collected. Plasma was prepared and brain tissue homogenized to enable quantitation of drug content by LC-MS/MS.
Concentrations of each compound were determined and brain:plasma ratios calculated accordingly.

[9] = tested on: guinea pig hearts
[10] = Solubility; type: physicochemical; conditions: Table I
[11] = tested on: intact rat brain; conditions: in vivo, 30 seconds, 20 μM
[12] = molecular target: T1, cloned hERG channels stably expressed in HEK cells (Homo sapiens, UniProt Q12809)
T1 sequence (Q12809 whole entry): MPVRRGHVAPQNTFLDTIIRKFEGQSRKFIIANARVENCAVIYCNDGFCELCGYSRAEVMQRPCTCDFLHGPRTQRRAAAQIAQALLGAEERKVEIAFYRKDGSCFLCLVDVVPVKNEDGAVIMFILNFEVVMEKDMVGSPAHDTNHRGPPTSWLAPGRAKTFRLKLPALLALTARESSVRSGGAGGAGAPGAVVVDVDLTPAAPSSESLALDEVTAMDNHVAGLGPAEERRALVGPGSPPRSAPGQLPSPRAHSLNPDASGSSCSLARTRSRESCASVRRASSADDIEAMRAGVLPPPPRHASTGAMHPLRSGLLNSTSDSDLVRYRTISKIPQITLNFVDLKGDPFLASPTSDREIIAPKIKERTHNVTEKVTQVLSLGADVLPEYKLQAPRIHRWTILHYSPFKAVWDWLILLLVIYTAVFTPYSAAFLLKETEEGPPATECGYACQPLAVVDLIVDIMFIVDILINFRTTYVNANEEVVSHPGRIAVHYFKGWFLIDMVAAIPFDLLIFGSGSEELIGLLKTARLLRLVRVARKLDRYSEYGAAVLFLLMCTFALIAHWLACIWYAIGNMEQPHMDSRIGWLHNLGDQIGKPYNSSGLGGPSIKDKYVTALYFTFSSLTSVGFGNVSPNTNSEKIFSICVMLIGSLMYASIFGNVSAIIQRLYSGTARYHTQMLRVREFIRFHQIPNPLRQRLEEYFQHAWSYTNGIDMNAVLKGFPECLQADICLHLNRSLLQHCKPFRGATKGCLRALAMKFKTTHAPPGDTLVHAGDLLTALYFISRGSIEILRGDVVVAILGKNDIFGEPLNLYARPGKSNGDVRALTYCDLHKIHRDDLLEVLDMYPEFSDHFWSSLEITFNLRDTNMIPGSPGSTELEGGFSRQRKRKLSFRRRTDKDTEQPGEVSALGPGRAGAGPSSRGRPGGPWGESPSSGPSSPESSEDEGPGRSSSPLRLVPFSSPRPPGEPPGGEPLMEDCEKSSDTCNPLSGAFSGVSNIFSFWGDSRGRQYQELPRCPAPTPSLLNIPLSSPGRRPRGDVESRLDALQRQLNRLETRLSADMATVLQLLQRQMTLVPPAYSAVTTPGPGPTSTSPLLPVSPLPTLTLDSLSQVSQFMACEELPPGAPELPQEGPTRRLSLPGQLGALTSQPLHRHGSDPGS

[13] = molecular target: T1, cloned hERG channels stably expressed in HEK cells; assay: hERG current inhibition, electrophysiology
[14] = tested on: histamine-induced wheal and flare response; type: in vivo; conditions: for percent decrease in the wheal response (change in wheal size): 20 minute time-point, 0.1-0.3 mg/kg dose range
Experimental: Wheal and flare (erythema) experiments were performed in rats in order to measure in vivo activity of PEG-diphenhydramine. Intradermal injection of histamine produces a “wheal and flare” response in the skin as a result of histamine-induced mast cell degranulation, which is prevented by treatment with effective antihistamines.
Histamine was prepared from histamine diphosphate salt at 1 mg/mL (3.26 mM) in PBS, and was administered by intradermal injection 2.5 minutes after IV injection of the test article to the tail vein. At 5, 10, 20, 30 and 60 minutes post-injection, wheal sizes were measured using calipers and areas calculated (width×length, mm^2). Flare responses were measured by eye, and were graded on a scoring system of 1 (least significant)-5 (most severe).

[15] = tested on: hepatocytes; assay: Hepatocyte metabolism, dog
[16] = tested on: rat hepatocyte; assay: Rat hepatocyte incubation
[17] = tested on: guinea pig hearts; assay: In vitro safety pharmacology, guinea pig hearts; conditions: rat and guinea pig preparations responded similarly
[18] = rat, plasma, IV, 1 mg/kg DPH-equivalent
[19] = rat, plasma, IV, 1 mg/kg DPH-equivalent, read-out: Cmax
[20] = rat, plasma, oral 5 mg/kg vs IV 1 mg/kg
[21] = rat, plasma, oral, 5 mg/kg DPH-equivalent
[22] = rat, plasma, oral, 5 mg/kg DPH-equivalent, read-out: Cmax
[23] = rat, plasma, oral, 5 mg/kg DPH-equivalent, read-out: Tmax
[24] = Ki ratio, repeated assay (asterisk), n=3
[25] = repeated assay (asterisk), n=3 samples per data point
[26] = one hour after tail vein injection, rats

In the case of `COCCOCCOCCOCCOCCN(C)CCOC(c1ccccc1)c1ccccc1` [mPEG5-N-diphenhydramine], the “dromotropism (PQ and QRS)” value [1] is reported as “greater negative dromotropism (lengthening of PQ and QRS) than diphenhydramine”, the “effect on coronary smooth muscle” value [1] is reported as “vasodilatory effect” and the “ventricular repolarization (QT and QTc)” value [1] is reported as “retard ventricular repolarization (QT and QTc) slightly more than diphenhydramine or quinidine”. For the same compound, the cardiodeceleration ([1]; 10^−5 M) was “greater cardiodeceleration”, the inotropism and lusitropism ([1]; 10^−5 M) was “striking positive inotropism and lusitropism” and the IC50 [2] was 600 nM. The “metabolic breakdown / hepatic intrinsic clearance compared with diphenhydramine” value [3] was “moderately faster metabolic breakdown than diphenhydramine”, the “antihistamine efficacy (wheal size)” value [4] was “demonstrated efficacy, but toxicity occurs at same concentrations” and the “fold weaker than diphenhydramine” value ([4]; efficacy at diphenhydramine-equivalent target plasma concentrations) was no less than 10 fold. The half-life [5] was 44.2 min, the Fold vs parent [6] was 11.1 and 14.6 and the Ki [6] was 333 nM and 230 nM. It also gave an AUC(0-inf) [7, 18] of 391 ng·h/mL, a clearance [7, 18] of 69.5 mL/min/kg and a Cmax [7, 19] of 821 ng/mL. For the same compound, the half-life [7, 18] was 19.8 min, the Vd [7, 18] was 1.98 L/kg and the bioavailability [7, 20] was 1.5%. The AUC(0-inf) [7, 21] was 29.4 ng·h/mL, the Cmax [7, 22] was 53.6 ng/mL and the half-life [7, 21] was 22.8 min. The Tmax [7, 23] was 15 min, the “Fold change (vs DPH)” value [8] was 28 and the Kp at 1 h [8] was 0.2 to 1. For the same compound, the concentration at 1 h ([8]; brain) was 97.9 ± 32.9 ng/g, the concentration at 1 h ([8]; plasma) was 415 ± 78.7 ng/mL and the Coronary perfusion [9] was “increased dramatically”. For the same compound, the “QRS and PQ durations” value ([9]; guinea pig) was “increase only for 10^−5 M concentration”.
In the case of `COCCOCCOCCOCCOCCN1CCN(C(c2ccccc2)c2ccc(Cl)cc2)CC1` (stereo not drawn) [PEG3-Hydroxyzine, mPEG3-Hydroxyzine], the IC50 ([2]; read-out: IC50) is reported as 105 nM and the Solubility [10] is reported as “soluble”.
For `Cc1cc(=O)n(-c2ccccc2)n1C` [Antipyrine], the “Normalized Brain Uptake Rate (Mean ± SD)” value [11] was 17.4 ± 5.7 pmole/gm brain/sec.
For `COCCOCCOCCOCCOCCNC(=O)COCCN1CCN(C(c2ccccc2)c2ccc(Cl)cc2)CC1` (stereo not drawn) [PEG5-Cetirizine, mPEG5-Cetirizine], the Solubility [10] was “soluble”.
`COCCOCCOCCOCCOCCOCCN(CCOC(c1ccccc1)c1ccccc1)CCOC(c1ccccc1)c1ccccc1` [mPEG6-N-(Diphenhydramine)2, mPEGn-N-(diphenhydramine)2] gave an IC50 ([2]; read-out: IC50) of 6500 nM.
With `COCCOCCOCCOCCN(C)CCOC(c1ccccc1)c1ccccc1` [mPEG(4)-N-Diphenhydramine, mPEG4-N-diphenhydramine] the Fold vs parent [6, 24] was 12.7 and the Ki [6, 25] was 200 nM.
With `COCCOCCOCCOCCOCCOCCOCCN1CCN(C(c2ccccc2)c2ccc(Cl)cc2)CC1` (stereo not drawn) [PEG5-Hydroxyzine, mPEG5-Hydroxyzine] the IC50 ([2]; read-out: IC50) was 76.7 nM and the Solubility [10] was “soluble”.
For `OCCOCCN1CCN(C(c2ccccc2)c2ccc(Cl)cc2)CC1` (stereo not drawn) [Hydroxyzine, reference compound], the “Normalized Brain Uptake Rate (Mean ± SD)” value [11] was 355.89 ± 59.02 pmole/gm brain/sec.
In the case of `COCCOCCOCCOCCOCCOCCOCCN(C)CCOC(c1ccccc1)c1ccccc1` [mPEG(7)-N-Diphenhydramine, mPEG7-N-diphenhydramine], the IC50 [2] is reported as 1730 nM, the “antihistamine efficacy (wheal size)” value [4] is reported as “no efficacy in concentration range tested” and the half-life [5] is reported as 88.4 min. For the same compound, the IC50 fold lower [12] was 4 fold, the Fold vs parent [6] was 20.1 and 28.7 and the Ki [6] was 605 nM and 454 nM. The AUC(0-inf) [7, 18] was 410 ng·h/mL, the clearance [7, 18] was 78.4 mL/min/kg and the Cmax [7, 19] was 882 ng/mL. For the same compound, the half-life [7, 18] was 25.8 min, the Vd [7, 18] was 2.07 L/kg and the bioavailability [7, 20] was 1.3%. It also gave an AUC(0-inf) [7, 21] of 26.6 ng·h/mL, a Cmax [7, 22] of 41.3 ng/mL and a half-life [7, 21] of 28.2 min. For the same compound, the Tmax [7, 23] was 15 min, the IC50 [13] was 13000 nM and the “Fold change (vs DPH)” value [8] was 26. The Kp at 1 h [8] was 0.2 to 1, the concentration at 1 h ([8]; brain) was 106 ± 27.1 ng/g and the concentration at 1 h ([8]; plasma) was 545 ± 57.9 ng/mL.
For `CN(C)CCOC(c1ccccc1)c1ccccc1` [Diphenhydramine, reference compound], the “flare response (visual scoring)” value ([14]; 0.01 mg/kg) was “protective effect of diphenhydramine begins to decrease”, the “flare response (visual scoring)” value ([14]; 0.03 mg/kg) was “still suppresses the response effectively” and the “percent decrease in the wheal response (change in wheal size)” value [14] was “approximately 40%”. The wheal size ([14]; all doses tested) was “clear dose-dependent reduction”, the “flare response (visual scoring)” value ([14]; highest concentrations) was “no detectable flare” and the “antihistamine efficacy (wheal size)” value [4] was “dose dependent reduction in wheal size”.
Compound `COCCOCCOCCOCCOCCOCCNCCOC(c1ccccc1)c1ccccc1` [mPEG(6)-NH-Diphenhydramine, mPEG6-NH-diphenhydramine] has an IC50 ([2]; read-out: IC50) of 4120 nM, a Fold vs parent ([6]; Ki ratio, first run, n=2) of 62.5 and a Ki ([6]; first run, n=2 samples per data point) of 1890 nM.
In the case of `COCCOCCOCCN1CCN(C(c2ccccc2)c2ccc(Cl)cc2)CC1` (stereo not drawn) [PEG1 -Hydroxyzine, mPEG1-Hydroxyzine], the IC50 ([2]; read-out: IC50) is reported as 70.3 nM and the Solubility [10] is reported as “soluble”.
For `COCCOCCOCCOCCOCCOCCN(C)CCOC(c1ccccc1)c1ccccc1` [mPEG(6)-N-Diphenhydramine, mPEG6-N-diphenhydramine], the “Half-Life (t1/2) (hepatocytes)” value ([3]; human hepatocytes, initial rate of loss of parent, n=1) was 122.9 min, the “metabolic breakdown / hepatic intrinsic clearance compared with diphenhydramine” value [3] was “faster than that of the parent diphenhydramine” and the “hepatic intrinsic clearance compared with diphenhydramine” value [15] was “faster than that of the parent diphenhydramine”. For the same compound, the “flare response (visual scoring)” value ([14]; 0.03 mg/kg) was “flare responses begin to return”, the wheal size ([14]; 0.03 mg/kg) was “did not produce a detectable change in wheal size” and the “toxicity in first animal dosed” value ([14]; 1 mg/kg IV, rat) was “suffered convulsions and died”. For the same compound, the wheal size ([14]; 0.1, 0.3 mg/kg) was “reduced the size of the wheal compared with control injection”, the “percent decrease in the wheal response (change in wheal size)” value [14] was “approximately 25%” and the “flare response (visual scoring)” value ([14]; highest concentrations) was “no detectable flare”. For the same compound, the AUCinf ([7]; IV, 1 mg/kg DPH-equivalent) was 405 ng·h/mL, the CL ([7]; IV, 1 mg/kg DPH-equivalent) was 73.32 mL/min/kg and the Cmax ([7]; IV, 1 mg/kg DPH-equivalent) was 790 ng/mL. The “T ½” value ([7]; IV, 1 mg/kg DPH-equivalent) was 22.8 min, the Vss ([7]; IV, 1 mg/kg DPH-equivalent) was 1.91 L/kg and the “F (oral bioavailability)” value ([7]; oral 5 mg/kg vs IV 1 mg/kg) was 2.4%. The AUCinf ([7]; oral, 5 mg/kg DPH-equivalent) was 49.1 ng·h/mL, the Cmax ([7]; oral, 5 mg/kg DPH-equivalent) was 81.9 ng/mL and the “T ½” value ([7]; oral, 5 mg/kg DPH-equivalent) was 23.4 min. For the same compound, the Tmax ([7]; oral, 5 mg/kg DPH-equivalent) was 15 min, the “metabolic breakdown compared with diphenhydramine” value [16] was “slower metabolic breakdown than diphenhydramine” and the IC50 ([13]; read-out: IC50 hERG channel, hERG current, HEK cells) was 3790 nM. For the same compound, the Brain concentration [8, 26] was 45.1 ± 4.4 ng/g and the Plasma concentration [8, 26] was 237.0 ± 41.1 ng/mL.
In the case of `C=C[C@H]1C[N@@]2CC[C@H]1C[C@@H]2[C@@H](O)c1ccnc2ccc(OC)cc12` [quinidine], the QT [17] is reported as “lengthened dramatically”.
`COCCOCCOCCN(C)CCOC(c1ccccc1)c1ccccc1` [mPEG(3)-N-Diphenhydramine, mPEG3-N-diphenhydramine] gave a Fold vs parent [6, 24] of 7.8 and a Ki [6, 25] of 124 nM.
